Counter-ions that a name gives are not always drawn.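 Following 48 hours of exposure in 96-well plates, responses at five concentrations were used to interpolate endpoints linearly. GI50 marks 50% less growth.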 Active and inactive are the calls of the source. No stated cut-off is given here; in the data, active = GI50 up to about 1.1 µM and inactive = higher.
Legend:
Assay in all cases: growth of human tumour cells (NCI), 48 h
LOX IMVI = test system: LOX IMVI
OVCAR-8 = test system: OVCAR-8
NCI/ADR-RES = test system: NCI/ADR-RES
SK-MEL-5 = test system: SK-MEL-5
EKVX = test system: EKVX
PC-3 = test system: PC-3
CCRF-CEM = test system: CCRF-CEM
TK-10 = test system: TK-10
HCT-15 = test system: HCT-15
BT-549 = test system: BT-549
IGROV-1 = test system: IGROV-1
HOP-18 = test system: HOP-18
A549 = test system: A549
Malme-3M = test system: Malme-3M
HOP-62 = test system: HOP-62
MOLT-4 = test system: MOLT-4
SW-620 = test system: SW-620
OVCAR-5 = test system: OVCAR-5
RPMI-8226 = test system: RPMI-8226
A498 = test system: A498

Compound	GI50 (LOX IMVI)	GI50 (OVCAR-8)	GI50 (NCI/ADR-RES)	GI50 (SK-MEL-5)	GI50 (EKVX)	GI50 (PC-3)	GI50 (CCRF-CEM)	GI50 (TK-10)	GI50 (HCT-15) [µM]	GI50 (BT-549)	GI50 (IGROV-1)	GI50 (HOP-18)	GI50 (A549)	GI50 (Malme-3M)	GI50 (HOP-62)	GI50 (MOLT-4)	GI50 (SW-620)	GI50 (OVCAR-5)	GI50 (RPMI-8226)	GI50 (A498)
NCCSSCCN [CYSTAMINE HYDROCHLORIDE]	> 100 µM (inactive)	> 100 µM (inactive)	> 100 µM (inactive)	> 100 µM (inactive)	> 100 µM (inactive)	> 100 µM (inactive)	56.1 µM (inactive)	> 100 µM (inactive)	> 100	> 100 µM (inactive)	> 100 µM (inactive)	> 100 µM (inactive)	> 100 µM (inactive)	> 100 µM (inactive)	> 100 µM (inactive)	> 100 µM (inactive)	> 100 µM (inactive)	> 100 µM (inactive)	> 100 µM (inactive)	> 100 µM (inactive)
COc1ccc(C[P+]2(c3ccccc3)CCCCC2)cc1.O=[N+]([O-])c1ccc(C[P+]2(c3ccccc3)CCCCC2)cc1.[O-][Cl+3]([O-])([O-])[O-].[O-][Cl+3]([O-])([O-])[O-]	67.5 µM (inactive)	> 100 µM (inactive)		23.7 µM (inactive)	> 100 µM (inactive)		> 100 µM (inactive)	> 100 µM (inactive)	> 100		47.6 µM (inactive)	15.4 µM (inactive)	> 100 µM (inactive)	19.3 µM (inactive)	77.1 µM (inactive)	63.8 µM (inactive)	94.6 µM (inactive)	> 100 µM (inactive)	24.9 µM (inactive)	> 100 µM (inactive)
C=CCCC(O)c1cc(C)c(O)c(C)c1 (stereo not drawn)	> 100 µM (inactive)	> 100 µM (inactive)		> 100 µM (inactive)	> 100 µM (inactive)		> 100 µM (inactive)	> 100 µM (inactive)	> 100		> 100 µM (inactive)	> 100 µM (inactive)	> 100 µM (inactive)	> 100 µM (inactive)	> 100 µM (inactive)	> 100 µM (inactive)	> 100 µM (inactive)	> 100 µM (inactive)	> 100 µM (inactive)	> 100 µM (inactive)
COc1cc2c(cc1O)CC13CCC(=O)N1CCc1cc(OC)c(O)c-2c13 (stereo not drawn)	> 68.1 µM (inactive)	> 68.1 µM (inactive)		> 68.1 µM (inactive)	> 68.1 µM (inactive)		> 68.1 µM (inactive)	> 68.1 µM (inactive)	> 68.1		> 68.1 µM (inactive)	> 68.1 µM (inactive)	> 68.1 µM (inactive)	> 68.1 µM (inactive)	> 68.1 µM (inactive)	> 68.1 µM (inactive)	> 68.1 µM (inactive)	> 68.1 µM (inactive)	> 68.1 µM (inactive)	> 68.1 µM (inactive)
O=c1/c(=C/c2ccc3c(c2)OCO3)sc2nnc(-c3ccco3)n12	> 100 µM (inactive)	> 100 µM (inactive)		> 100 µM (inactive)	> 100 µM (inactive)		> 100 µM (inactive)	> 100 µM (inactive)			> 100 µM (inactive)	> 100 µM (inactive)	> 100 µM (inactive)	> 100 µM (inactive)	> 100 µM (inactive)	> 100 µM (inactive)	> 100 µM (inactive)	> 100 µM (inactive)	> 100 µM (inactive)	> 100 µM (inactive)
Cc1n(-c2ccccc2)c2c([n+]1Cc1ccc([N+](=O)[O-])cc1)C(=O)c1ccccc1C2=O	1.75 µM (inactive)	2.37 µM (inactive)	2.05 µM (inactive)	1.85 µM (inactive)	2.49 µM (inactive)	2.25 µM (inactive)	1.82 µM (inactive)	7.66 µM (inactive)	9.12	1.79 µM (inactive)	0.855 µM (active)	7.19 µM (inactive)	3.56 µM (inactive)	1.67 µM (inactive)	6.5 µM (inactive)	0.59 µM (active)	2.12 µM (inactive)	2.02 µM (inactive)	0.845 µM (active)	12.2 µM (inactive)
CCOC(=O)C1(C)CCC(C(=O)OC)C1=O (stereo not drawn)	18.1 µM (inactive)	> 100 µM (inactive)		> 100 µM (inactive)	> 100 µM (inactive)		21.9 µM (inactive)	> 100 µM (inactive)	20.2		> 100 µM (inactive)	> 100 µM (inactive)	> 100 µM (inactive)	> 100 µM (inactive)	> 100 µM (inactive)	87.9 µM (inactive)		> 100 µM (inactive)	> 100 µM (inactive)	> 100 µM (inactive)
CCCCCCCCCCCCCC(=O)OC(/C=C/C(C)C)C(O)C(O)C(OC)C(=O)NC1CCCCN(C)C1=O (stereo not drawn)	7.23 µM (inactive)	5.28 µM (inactive)	> 10 µM (inactive)	3.19 µM (inactive)	9.06 µM (inactive)	7.48 µM (inactive)	3.95 µM (inactive)	7.05 µM (inactive)	6	> 10 µM (inactive)	0.457 µM (active)	3.54 µM (inactive)	0.575 µM (active)	2.11 µM (inactive)	3.15 µM (inactive)	2.7 µM (inactive)	1.36 µM (inactive)	4.36 µM (inactive)	2.07 µM (inactive)	4.67 µM (inactive)

— ChEMBL document CHEMBL1201862, “PubChem BioAssay data set” (2004)
